Experimental data published in US8685970B2, “Quinolines and related analogs as sirtuin modulators” (GlaxoSmithKline, LLC, priority 2008, dated 2014).

biological target: T1, SIRT1 (Homo sapiens, UniProt Q96EB6); assay: Mass spectrometry based SIRT1 deacetylation assay (activation); format: biochemical; conditions: 10 nM SIRT1, 0.5 μM peptide substrate, 120 μM βNAD+, 25 min at 25° C.
T1 sequence (Q96EB6 1-747): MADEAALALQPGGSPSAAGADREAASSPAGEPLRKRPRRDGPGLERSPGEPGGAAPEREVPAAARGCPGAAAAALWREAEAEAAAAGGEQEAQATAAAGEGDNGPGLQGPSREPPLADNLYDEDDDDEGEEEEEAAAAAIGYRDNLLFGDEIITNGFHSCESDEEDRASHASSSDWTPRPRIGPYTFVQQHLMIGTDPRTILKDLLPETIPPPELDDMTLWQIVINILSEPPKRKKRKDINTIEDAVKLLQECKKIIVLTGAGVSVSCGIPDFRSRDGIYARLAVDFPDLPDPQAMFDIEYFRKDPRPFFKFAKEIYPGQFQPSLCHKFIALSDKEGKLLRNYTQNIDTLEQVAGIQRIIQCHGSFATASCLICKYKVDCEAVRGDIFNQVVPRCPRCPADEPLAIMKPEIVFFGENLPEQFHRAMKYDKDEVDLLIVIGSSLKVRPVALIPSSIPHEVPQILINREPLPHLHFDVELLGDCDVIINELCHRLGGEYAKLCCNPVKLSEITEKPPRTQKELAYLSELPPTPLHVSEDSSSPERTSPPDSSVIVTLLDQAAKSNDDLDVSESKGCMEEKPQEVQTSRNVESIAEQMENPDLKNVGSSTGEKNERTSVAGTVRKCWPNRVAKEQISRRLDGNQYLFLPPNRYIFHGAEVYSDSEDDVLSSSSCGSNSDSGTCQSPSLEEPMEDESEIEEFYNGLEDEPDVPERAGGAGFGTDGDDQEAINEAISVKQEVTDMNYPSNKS
Description: A mass spectrometry based assay was used to identify modulators of SIRT1 activity. The mass spectrometry based assay utilizes a peptide having 20 amino acid residues as follows: Ac-EE-K (biotin)-GQSTSSHSK (Ac)N1eSTEG-K(5TMR)-EE-NH2 (SEQ ID NO: 1) wherein K(Ac) is an acetylated lysine residue and Nle is a norleucine. The peptide is labeled with the fluorophore 5TMR (excitation 540 nm/emission 580 nm) at the C-terminus. The sequence of the peptide substrate is based on p53 with several modifications. In addition, the methionine residue naturally present in the sequence was replaced with the norleucine because the methionine may be susceptible to oxidation during synthesis and purification.
The mass spectrometry assay is conducted as follows: 0.5 μM peptide substrate and 120 μM βNAD^+ is incubated with 10 nM SIRT1 for 25 minutes at 25° C. in a reaction buffer (50 mM Tris-acetate pH 8, 137 mM NaCl, 2.7 mM KCl, 1 mM MgCl2, 5 mM DTT, 0.05% BSA). Test compounds may be added to the reaction as described above. The SirT1 gene is cloned into a T7-promoter containing vector and transformed into BL21(DE3). After the 25 minute incubation with SIRT1, 10 μL of 10% formic acid is added to stop the reaction. Reactions are sealed and frozen for later mass spec analysis. Determination of the mass of the substrate peptide allows for precise determination of the degree of acetylation (i.e. starting material) as compared to deacetylated peptide (product).
A control for inhibition of sirtuin activity is conducted by adding 1 μL of 500 mM nicotinamide as a negative control at the start of the reaction (e.g., permits determination of maximum sirtuin inhibition). A control for activation of sirtuin activity is conducted using 10 nM of sirtuin protein, with 1 μL of DMSO in place of compound, to determine the amount of deacetylation of the substrate at a given timepoint within the linear range of the assay. This timepoint is the same as that used for test compounds and, within the linear range, the endpoint represents a change in velocity.
For the above assay, SIRT1 protein was expressed and purified as follows. The SirT1 gene was cloned into a T7-promoter containing vector and transformed into BL21(DE3). The protein was expressed by induction with 1 mM IPTG as an N-terminal His-tag fusion protein at 18° C. overnight and harvested at 30,000×g. Cells were lysed with lysozyme in lysis buffer (50 mM Tris-HCl, 2 mM Tris[2-carboxyethyl]phosphine (TCEP), 10 μM ZnCl2, 200 mM NaCl) and further treated with sonication for 10 min for complete lysis. The protein was purified over a Ni-NTA column (Amersham) and fractions containing pure protein were pooled, concentrated and run over a sizing column (Sephadex S200 26/60 global). The peak containing soluble protein was collected and run on an Ion-exchange column (MonoQ). Gradient elution (200 mM-500 mM NaCl) yielded pure protein. This protein was concentrated and dialyzed against dialysis buffer (20 mM Tris-HCl, 2 mM TCEP) overnight. The protein was aliquoted and frozen at −80° C. until further use.
Sirtuin modulating compounds that activated SIRT1 were identified using the assay described above and are shown below in Table 1. The EC1.5 values represent the concentration of test compounds that result in 150% activation of SIRT1. The EC1.5 values for the activating compounds are represented by A (EC1.5<1.0 uM), B (EC1.5 1-25 uM), C (EC1.5>25 uM). The percent maximum fold activation is represented by A (Fold activation >200%) or B (Fold Activation <200%). “NT” indicates the compound was not tested in a particular assay.

Row | Structure (SMILES) | EC1.5 (concentration of test compound that results in 150% activation of SIRT1) | % Fold Act. (percent maximum fold activation)
1 | O=C(Nc1cccc2ccc(-c3ccccc3)nc12)c1cccc(N2CCCC2)c1 [Compound 1] | C (EC1.5>25 uM) | –
2 | O=C(Nc1cccc2ccc(-c3ccccc3)nc12)c1cscn1 [Compound 2] | B (EC1.5 1-25 uM) | A (Fold activation >200%)
3 | O=C(Nc1cccc2ccc(-c3ccccc3)nc12)c1cnccn1 [Compound 3] | A (EC1.5<1.0 uM) | A (Fold activation >200%)
4 | O=C(Nc1cccc2ccc(-c3cccc(C(F)(F)F)c3)nc12)c1cnccn1 [Compound 4] | A (EC1.5<1.0 uM) | B (Fold Activation <200%)
5 | O=C(Nc1cccc2ccc(-c3cccc(C(F)(F)F)c3)nc12)c1cscn1 [Compound 5] | A (EC1.5<1.0 uM) | A (Fold activation >200%)
6 | O=C(Nc1cccc2ccc(-c3ccccc3)nc12)c1cccc(OC(F)(F)F)c1 [Compound 6] | C (EC1.5>25 uM) | –
7 | O=C(Nc1cccc2ccc(-c3cccc(OC(F)(F)F)c3)nc12)c1cscn1 [Compound 7] | B (EC1.5 1-25 uM) | A (Fold activation >200%)
8 | O=C(Nc1cccc2ccc(-c3cccc(OC(F)(F)F)c3)nc12)c1cnccn1 [Compound 8] | A (EC1.5<1.0 uM) | B (Fold Activation <200%)
9 | O=C(Nc1ccccc1)c1cccc2ccc(-c3ccccc3)nc12 [Compound 9] | C (EC1.5>25 uM) | B (Fold Activation <200%)
10 | O=C(Nc1ccccc1)c1cccc2ccc(-c3cccc(C(F)(F)F)c3)nc12 [Compound 10] | B (EC1.5 1-25 uM) | A (Fold activation >200%)
11 | O=C(Nc1ccccc1)c1cccc2ccc(-c3cccc(OC(F)(F)F)c3)nc12 [Compound 11] | B (EC1.5 1-25 uM) | B (Fold Activation <200%)
12 | O=C(Nc1nccs1)c1cccc2ccc(-c3ccccc3)nc12 [Compound 12] | A (EC1.5<1.0 uM) | A (Fold activation >200%)
13 | O=C(Nc1nccs1)c1cccc2ccc(-c3cccc(C(F)(F)F)c3)nc12 [Compound 13] | A (EC1.5<1.0 uM) | A (Fold activation >200%)
14 | O=C(Nc1nccs1)c1cccc2ccc(-c3cccc(OC(F)(F)F)c3)nc12 [Compound 14] | A (EC1.5<1.0 uM) | B (Fold Activation <200%)
15 | O=C(Nc1cnccn1)c1cccc2ccc(-c3ccccc3)nc12 [Compound 15] | A (EC1.5<1.0 uM) | B (Fold Activation <200%)
16 | O=C(Nc1cnccn1)c1cccc2ccc(-c3cccc(C(F)(F)F)c3)nc12 [Compound 16] | A (EC1.5<1.0 uM) | A (Fold activation >200%)

Row | Structure (SMILES) | EC1.5 (concentration of test compound that results in 150% activation of SIRT1) | % Fold Act. (percent maximum fold activation)
17 | O=C(Nc1cnccn1)c1cccc2ccc(-c3cccc(OC(F)(F)F)c3)nc12 [Compound 17] | A (EC1.5<1.0 uM) | A (Fold activation >200%)
18 | O=C(Nc1cccc2ccc(-c3cccc(OC(F)(F)F)c3)nc12)c1ccccc1 [Compound 19] | C (EC1.5>25 uM) | –
19 | O=C(Nc1cccc2ccc(-c3cccc(OC(F)(F)F)c3)nc12)c1ccccc1F [Compound 20] | C (EC1.5>25 uM) | –
20 | O=C(Nc1cccc2ccc(-c3cccc(OC(F)(F)F)c3)nc12)c1cccc(F)c1 [Compound 21] | C (EC1.5>25 uM) | –
21 | O=C(Nc1cccc2ccc(-c3cccc(OC(F)(F)F)c3)nc12)c1ccc(F)cc1 [Compound 22] | C (EC1.5>25 uM) | –
22 | O=C(Nc1cccc2ccc(-c3cccc(OC(F)(F)F)c3)nc12)c1cnc2ccccc2n1 [Compound 23] | C (EC1.5>25 uM) | –
23 | O=C(Nc1ccccn1)c1cccc2ccc(-c3cccc(OC(F)(F)F)c3)nc12 [Compound 24] | A (EC1.5<1.0 uM) | A (Fold activation >200%)
24 | O=C(Nc1cccnc1)c1cccc2ccc(-c3cccc(OC(F)(F)F)c3)nc12 [Compound 25] | A (EC1.5<1.0 uM) | A (Fold activation >200%)
25 | O=C(Nc1ccncc1)c1cccc2ccc(-c3cccc(OC(F)(F)F)c3)nc12 [Compound 26] | B (EC1.5 1-25 uM) | A (Fold activation >200%)
26 | Cc1csc(NC(=O)c2cccc3ccc(-c4cccc(C(F)(F)F)c4)nc23)n1 [Compound 27] | A (EC1.5<1.0 uM) | A (Fold activation >200%)
27 | O=C(Nc1nncs1)c1cccc2ccc(-c3cccc(C(F)(F)F)c3)nc12 [Compound 28] | A (EC1.5<1.0 uM) | A (Fold activation >200%)
28 | O=C(Nc1ccccn1)c1cccc2ccc(-c3cccc(C(F)(F)F)c3)nc12 [Compound 30] | A (EC1.5<1.0 uM) | A (Fold activation >200%)
29 | O=C(Nc1cccnc1)c1cccc2ccc(-c3cccc(C(F)(F)F)c3)nc12 [Compound 31] | A (EC1.5<1.0 uM) | A (Fold activation >200%)
30 | O=C(Nc1ccncc1)c1cccc2ccc(-c3cccc(C(F)(F)F)c3)nc12 [Compound 32] | A (EC1.5<1.0 uM) | A (Fold activation >200%)
31 | O=C(Nc1cc[nH]n1)c1cccc2ccc(-c3cccc(C(F)(F)F)c3)nc12 [Compound 34] | B (EC1.5 1-25 uM) | A (Fold activation >200%)
